The NIST ThermoML archive (doi:10.1021/je049788h)
± gives the expanded uncertainty stated by the source.

Details: 101.3 kPa, Liquid; for viscosity: Capillary tube (Ostwald / Ubbelohde) method; for mass density: Vibrating tube method

In the case of `COCCOCCOCCOCCOC` [2,5,8,11,14-pentaoxapentadecane], the viscosity (298.15 K) is reported as 3.38 ± 0.04 mPa·s, the mass density (298.15 K) is reported as 1006.65 ± 0.51 kg/m3 and the viscosity (313.15 K) is reported as 2.42 ± 0.03 mPa·s. It also gave a mass density (313.15 K) of 993.28 ± 0.51 kg/m3, a viscosity (323.15 K) of 2.004 ± 0.026 mPa·s and a mass density (323.15 K) of 984.05 ± 0.5 kg/m3. The viscosity (333.15 K) was 1.69 ± 0.02 mPa·s, the mass density (333.15 K) was 974.8 ± 0.5 kg/m3 and the viscosity (343.15 K) was 1.42 ± 0.02 mPa·s. For the same compound, the mass density (343.15 K) was 965.55 ± 0.49 kg/m3.
